Test results reported in article PMC4832243, “Discovery of Potent VEGFR-2 Inhibitors based on Furopyrimidine and Thienopyrimidne Scaffolds as Cancer Targeting Agents” (Scientific Reports, 2016).

Assays:
Format in all cases: cell-based
OVCAR-8 = test: NCI 60 cell line panel (SRB), OVCAR-8; conditions: Homo sapiens; OVCAR-8, Ovarian Cancer; single dose of 10 μM; read-out: Cell Growth Percent
ACHN = test: NCI 60 cell line panel (SRB), ACHN; conditions: Homo sapiens, Renal Cancer, single dose of 10 μM, read-out: Cell Growth Percent
CAKI-1 = test: NCI 60 cell line panel (SRB), CAKI-1; conditions: Homo sapiens; CAKI-1, Renal Cancer; single dose of 10 μM; read-out: Cell Growth Percent
NCI-H226 = test: NCI 60 cell line panel (SRB), NCI-H226; conditions: Homo sapiens; NCI-H226, Non-Small Cell Lung Cancer; single dose of 10 μM; read-out: Cell Growth Percent
EKVX = test: NCI 60 cell line panel (SRB), EKVX; conditions: Homo sapiens, Non-Small Cell Lung Cancer, single dose of 10 μM, read-out: Cell Growth Percent
SR = test: NCI 60 cell line panel (SRB), SR; conditions: Homo sapiens, Leukemia, single dose of 10 μM, read-out: Cell Growth Percent
HCC-2998 = test: NCI 60 cell line panel (SRB), HCC-2998; conditions: Homo sapiens; HCC-2998, Colon Cancer; single dose of 10 μM; read-out: Cell Growth Percent
OVCAR-5 = test: NCI 60 cell line panel (SRB), OVCAR-5; conditions: Homo sapiens; OVCAR-5, Ovarian Cancer; single dose of 10 μM; read-out: Cell Growth Percent
A549/ATCC = test: NCI 60 cell line panel (SRB), A549/ATCC; conditions: Homo sapiens, Non-Small Cell Lung Cancer, single dose of 10 μM, read-out: Cell Growth Percent
UO-31 = test: NCI 60 cell line panel (SRB), UO-31; conditions: Homo sapiens; UO-31, Renal Cancer; single dose of 10 μM; read-out: Cell Growth Percent
NCI-H522 = test: NCI 60 cell line panel (SRB), NCI-H522; conditions: Homo sapiens; NCI-H522, Non-Small Cell Lung Cancer; single dose of 10 μM; read-out: Cell Growth Percent
SK-MEL-2 = test: NCI 60 cell line panel (SRB), SK-MEL-2; conditions: Homo sapiens; SK-MEL-2, Melanoma; single dose of 10 μM; read-out: Cell Growth Percent
SN12C = test: NCI 60 cell line panel (SRB), SN12C; conditions: Homo sapiens, Renal Cancer, single dose of 10 μM, read-out: Cell Growth Percent
DU-145 = test: NCI 60 cell line panel (SRB), DU-145; conditions: Homo sapiens; DU-145, Prostate Cancer; single dose of 10 μM; read-out: Cell Growth Percent
T-47D = test: NCI 60 cell line panel (SRB), T-47D; conditions: Homo sapiens, T47D, Breast Cancer, single dose of 10 μM, read-out: Cell Growth Percent
SF-295 = test: NCI 60 cell line panel (SRB), SF-295; conditions: Homo sapiens; SF-295, CNS Cancer; single dose of 10 μM; read-out: Cell Growth Percent
UACC-257 = test: NCI 60 cell line panel (SRB), UACC-257; conditions: Homo sapiens; UACC-257, Melanoma; single dose of 10 μM; read-out: Cell Growth Percent
SK-MEL-5 = test: NCI 60 cell line panel (SRB), SK-MEL-5; conditions: Homo sapiens; SK-MEL-5, Melanoma; single dose of 10 μM; read-out: Cell Growth Percent
NCI-H460 = test: NCI 60 cell line panel (SRB), NCI-H460; conditions: Homo sapiens; NCI-H460, Non-Small Cell Lung Cancer; single dose of 10 μM; read-out: Cell Growth Percent
SNB-19 = test: NCI 60 cell line panel (SRB), SNB-19; conditions: Homo sapiens; SNB-19, CNS Cancer; single dose of 10 μM; read-out: Cell Growth Percent
LOX IMVI = test: NCI 60 cell line panel (SRB), LOX IMVI; conditions: Homo sapiens, Melanoma, single dose of 10 μM, read-out: Cell Growth Percent
HCT-15 = test: NCI 60 cell line panel (SRB), HCT-15; conditions: Homo sapiens; HCT-15, Colon Cancer; single dose of 10 μM; read-out: Cell Growth Percent
OVCAR-4 = test: NCI 60 cell line panel (SRB), OVCAR-4; conditions: Homo sapiens; OVCAR-4, Ovarian Cancer; single dose of 10 μM; read-out: Cell Growth Percent
MCF7 = test: NCI 60 cell line panel (SRB), MCF7; conditions: Homo sapiens; MCF7, Breast Cancer; single dose of 10 μM; read-out: Cell Growth Percent
SNB-75 = test: NCI 60 cell line panel (SRB), SNB-75; conditions: Homo sapiens; SNB-75, CNS Cancer; single dose of 10 μM; read-out: Cell Growth Percent
M14 = test: NCI 60 cell line panel (SRB), M14; conditions: Homo sapiens; M14, Melanoma; single dose of 10 μM; read-out: Cell Growth Percent
HT29 = test: NCI 60 cell line panel (SRB), HT29; conditions: Homo sapiens, HT-29; HT29, Colon Cancer; single dose of 10 μM; read-out: Cell Growth Percent
MDA-MB-231/ATCC = test: NCI 60 cell line panel (SRB), MDA-MB-231/ATCC; conditions: Homo sapiens, Breast Cancer, single dose of 10 μM, read-out: Cell Growth Percent
SK-MEL-28 = test: NCI 60 cell line panel (SRB), SK-MEL-28; conditions: Homo sapiens; SK-MEL-28, Melanoma; single dose of 10 μM; read-out: Cell Growth Percent
HS 578T = test: NCI 60 cell line panel (SRB), HS 578T; conditions: Homo sapiens, Breast Cancer, single dose of 10 μM, read-out: Cell Growth Percent
SW-620 = test: NCI 60 cell line panel (SRB), SW-620; conditions: Homo sapiens; SW-620, Colon Cancer; single dose of 10 μM; read-out: Cell Growth Percent
HL-60(TB) = test: NCI 60 cell line panel (SRB), HL-60(TB); conditions: Homo sapiens, Leukemia, single dose of 10 μM, read-out: Cell Growth Percent
RPMI-8226 = test: NCI 60 cell line panel (SRB), RPMI-8226; conditions: Homo sapiens; RPMI-8226, Leukemia; single dose of 10 μM; read-out: Cell Growth Percent
PC-3 = test: NCI 60 cell line panel (SRB), PC-3; conditions: Homo sapiens; PC-3, Prostate Cancer; single dose of 10 μM; read-out: Cell Growth Percent
MDA-MB-435 = test: NCI 60 cell line panel (SRB), MDA-MB-435; conditions: Homo sapiens; MDA-MB-435, Melanoma; single dose of 10 μM; read-out: Cell Growth Percent

For O=C(Nc1ccc(Cl)cc1)Nc1ccc(Oc2ncnc3sc4c(c23)CCCC4)cc1 [Compound 21d], the activity at 10 µM (OVCAR-8) was 94.7%, the activity at 10 µM (ACHN) was 95.4% and the activity at 10 µM (CAKI-1) was 95.4%. For the same molecule, the activity at 10 µM (NCI-H226) was 74%, the activity at 10 µM (EKVX) was 82.9% and the activity at 10 µM (SR) was 72.4%. It also gave an activity at 10 µM (HCC-2998) of 107%, an activity at 10 µM (OVCAR-5) of 113% and an activity at 10 µM (A549/ATCC) of 66.6%. It also gave an activity at 10 µM (UO-31) of 71.2%, an activity at 10 µM (NCI-H522) of 47.5% and an activity at 10 µM (SK-MEL-2) of 104%. The activity at 10 µM (SN12C) was 86.5%, the activity at 10 µM (DU-145) was 91.9% and the activity at 10 µM (T-47D) was 73.3%. It also gave an activity at 10 µM (SF-295) of 101%, an activity at 10 µM (UACC-257) of 91.4% and an activity at 10 µM (SK-MEL-5) of 78.4%. The activity at 10 µM (NCI-H460) was 82.1%, the activity at 10 µM (SNB-19) was 79.5% and the activity at 10 µM (LOX IMVI) was 84.8%. For the same molecule, the activity at 10 µM (HCT-15) was 91.6%, the activity at 10 µM (OVCAR-4) was 93.6% and the activity at 10 µM (MCF7) was 83.2%. For the same molecule, the activity at 10 µM (SNB-75) was 70.8%, the activity at 10 µM (M14) was 87% and the activity at 10 µM (HT29) was 86.4%. The activity at 10 µM (MDA-MB-231/ATCC) was 70.1%, the activity at 10 µM (SK-MEL-28) was 92.6% and the activity at 10 µM (HS 578T) was 74.7%. It also gave an activity at 10 µM (SW-620) of 97.7%, an activity at 10 µM (HL-60(TB)) of 100% and an activity at 10 µM (RPMI-8226) of 68.8%. For the same molecule, the activity at 10 µM (PC-3) was 57.6% and the activity at 10 µM (MDA-MB-435) was 93.7%.

CCOC(=O)c1c(C)oc2ncnc(Nc3ccc(C(=O)NCCc4ccccc4)cc3)c12 [Compound 14e] showed an activity at 10 µM (OVCAR-8) of 76.6%, an activity at 10 µM (ACHN) of 88.7% and an activity at 10 µM (CAKI-1) of 92.5%. It also gave an activity at 10 µM (NCI-H226) of 63.1%, an activity at 10 µM (EKVX) of 90.3% and an activity at 10 µM (SR) of 89.2%. For the same molecule, the activity at 10 µM (HCC-2998) was 91.4%, the activity at 10 µM (OVCAR-5) was 110% and the activity at 10 µM (A549/ATCC) was 56.6%. The activity at 10 µM (UO-31) was 97.3%, the activity at 10 µM (NCI-H522) was 66.9% and the activity at 10 µM (SK-MEL-2) was 82.4%. For the same molecule, the activity at 10 µM (SN12C) was 99.3%, the activity at 10 µM (DU-145) was 82.1% and the activity at 10 µM (T-47D) was 65.1%. It also gave an activity at 10 µM (SF-295) of 90.4%, an activity at 10 µM (UACC-257) of 79.6% and an activity at 10 µM (SK-MEL-5) of 85.6%. For the same molecule, the activity at 10 µM (NCI-H460) was 82.9%, the activity at 10 µM (SNB-19) was 84% and the activity at 10 µM (LOX IMVI) was 75.2%. The activity at 10 µM (HCT-15) was 92.2%, the activity at 10 µM (OVCAR-4) was 45.5% and the activity at 10 µM (MCF7) was 78.6%. The activity at 10 µM (SNB-75) was 7%, the activity at 10 µM (M14) was 81.2% and the activity at 10 µM (HT29) was 58.8%. For the same molecule, the activity at 10 µM (MDA-MB-231/ATCC) was 85.6%, the activity at 10 µM (SK-MEL-28) was 87.8% and the activity at 10 µM (HS 578T) was 51.2%. The activity at 10 µM (SW-620) was 105%, the activity at 10 µM (HL-60(TB)) was 87.6% and the activity at 10 µM (RPMI-8226) was 84.5%. For the same molecule, the activity at 10 µM (PC-3) was 59.2% and the activity at 10 µM (MDA-MB-435) was 87.5%.
